For 25 compounds, RP-LC retention time results are on record in the METLIN SMRT retention time set (Domingo-Almenara et al. 2019).

This data set can be described thus: gradient 5% acetonitrile 3 min, to 50% in 2 min, to 85% in 15 min, held 3 min, 100 µL/min. Particulars: column: Zorbax Extend-C18 2.1 x 50 mm; eluents: water / acetonitrile, 0.1% formic acid. An outline of the steps: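 Retention times of pure standards were taken from adduct peaks that were selected by computer and manually inspected. Over 3 months, mixtures of ~100 molecules were run by HPLC–quadrupole time-of-flight mass spectrometry in positive and negative ionization mode. The Zorbax Extend-C18 column (2.1 × 50 mm, 1.8 μm) ran at 100 μL/min in water and acetonitrile, each containing 0.1% formic acid, with 40 μL dead volume and 900 μL dwell volume.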
`COc1ccc(NC(=O)N2CC=C(c3cn(C(C)C)c4ncccc34)CC2)cc1F` returned an RP-LC retention time of 920 s.
As for `CC(=O)c1ccc2c(c1)[C@H](NC(=O)c1ccc(F)c(Cl)c1)[C@H](O)C(C)(C)O2`, the figure is 944 s; as for `O=C(Nc1ccccc1)C1CCCN(S(=O)(=O)c2c[nH]c(C(=O)N3CCCCCC3)c2)C1` (stereo not given), 876 s.
The result for `COc1ccc(-c2noc(C3CC(=O)N(c4ccc(C)c(Cl)c4)C3)n2)cc1` (stereo not given) reads 1050 s.
Regarding `O=C(c1cn2c(n1)CSCC2)N(Cc1ccccc1)Cc1ccco1`, the RP-LC retention time stood at 736 s.
As for `Cc1ccc(CCNC(=O)c2cc3sccc3n2Cc2ccc(Cl)cc2)cc1`, the figure is 1270 s.
As for `CCn1nc(CNC(=O)c2ccc(Br)o2)c2ccccc21`, the figure is 881 s.
Consider `O=C(Nc1ccc2c(c1)OCCO2)c1nn(CC2CC2)c2c1CNCC2`, for which the RP-LC retention time turned out to be 568 s.
Compound `O=C(Cn1cccc1-c1nc(-c2ccc(Cl)cc2)cs1)NCc1ccco1` displayed an RP-LC retention time of 1080 s.
Regarding `CCOc1ccc(N2CC(NC(=O)N3CCN(C(=O)c4ccco4)CC3)CC2=O)cc1` (stereo not given), the RP-LC retention time came out at 632 s.
Compound `COc1ccc(-c2nc(NCCN(C)C3CCCCC3)c3ccccc3n2)cc1` had an RP-LC retention time of 592 s.
Regarding `CC(=O)NCc1ccc(-c2noc(-c3ccc(Br)cc3)n2)s1`, the RP-LC retention time is 938 s.
As for `Cc1ccc(-c2cn3c(CC(=O)NCCC4=CCCCC4)csc3n2)cc1C`, the figure is 942 s; as for `CCc1nn2c(CNC(=O)C3CCN(C(C)=O)CC3)c(-c3ccccc3)nc2s1`, 664 s; as for `CCC(=O)N1CCCN(C2=NS(=O)(=O)C(c3ccc(C)c(C)c3)=C2C)CC1`, 766 s.
The result for `O=C(Nc1ccc2c(c1)CCN2S(=O)(=O)c1ccccc1)Nc1ccccc1Cl` reads 1030 s; that for `COc1ccc(CNC(=O)C2CCN(c3ncnc4c3oc3ccccc34)CC2)c(OC)c1`, 752 s.
As for `CCOC(=O)c1noc2ncnc(N3CCN(c4ccccc4OC)CC3)c12`, the figure is 970 s; as for `CCN(Cc1ccccc1)C(=O)CN1C(=O)C2CCCCN2c2ccc(S(=O)(=O)N(C)C)cc21` (stereo not given), 647 s.
Compound `COc1ccc(-c2nc(-c3cn(-c4cccc(Cl)c4)nn3)no2)c(OC)c1` had an RP-LC retention time of 1070 s.
The result for `Cc1ccc(CC(=O)N2CCC3(CC2)NC(=O)c2ccc(F)cc2N3C)cc1` reads 787 s; that for `COCCNc1c(-c2ccc(F)cc2)nc2sc(C(=O)NCc3ccncc3)c(C)n12`, 625 s.
The result for `CCCN1C(=O)C(NC(=O)CCc2ccccc2)(C(F)(F)F)C(C(=O)OC)=C1C` (stereo not given) reads 916 s; that for `Cc1csc(-c2cc(S(=O)(=O)Nc3ccc(F)cc3Cl)c(C)s2)n1`, 1040 s.
As for `CSc1cccc(NC(=O)N2CCN(c3cc(C)nc(N4CCOCC4)n3)CC2)c1`, the figure is 650 s.
